Assay results: patent publication EP0187057A1, “2-Phenyl-isopropyl-allophanate, preparation and pharmaceutical application” (priority 1984, dated 1986)
“And” between values parts separate entries of the source, which are not always exact repeats. Equal values may be shown once. Read-outs that look alike come from different tables or passages of the source.

Key:
crises psychomotrices = assay: Psychomotor seizures induced by low-frequency transcranial electrical stimulation; format: in vivo, souris; details: for Pourcentage de souris protégées une heure après traitement: groupes de 20 souris
Source text: (§1) Propriétés anticonvulsivantes : • On a effectué, pour déterminer ces propriétés anticonvulsivantes, des expérimentations sur le SCS 289 en procédant à des essais de protection : • - chez le lapin soumis à une transélectrification cranienne génératrice de crises épileptiformes de type "grand mal" ou recevant une infusion veineuse de pentétrazol provoquant l'apparition de myoclonies palpébrales; • - chez la souris recevant, par voie sous-cutanée des doses croissantes de pentétrazol entraînant convulsions et mort ou soumise à une transélectrification transcranienne à basse fréquence génératrice de crises psychomotrices.
On a également recherché si le SCS 289 était susceptible de protéger la souris contre le choc psychomoteur induit par une stimulation transcranienne à basse fréquence qui provoque, chez l'animal, un bref comportement de désorientation rappelant les attaques psychomotrices de l'homme.
Vis-à-vis des crises psychomotrices provoquées chez la souris par une stimulation électrique transcranienne à basse fréquence, le SCS 35 apparait plus actif que le SCS 289 : […]

[1] = tested on: crises épileptiformes consécutives à l'électrochoc; assay: Maximal electroshock producing epileptiform 'grand mal' seizures (1st and 2nd electroshock); format: in vivo, lapin
Source text: as §1
Ne considérant comme significative, que la protection complète, les traitements pratiqués une heure avant le second électrochoc ont conféré les protection suivantes (sur groupes de dix lapins) :
Si, par ailleurs, on considère la protection contre les crises toniques (hyperextension des pattes postérieures), il apparaît également une synergie particulièrement aux doses associées de 200 mg/kg de produits.

Narcotic effect = details: mouse, in vivo; souris; read-out: DE50 narcotique
Procedure: En ce qui concerne la maniabilité, la comparaison des doses de SCS 289 exerçant, chez la souris, des effets létaux et anticonvulsivants permet de prévoir une marge thérapeutique assez confortable (dans le domaine du "petit mal") : • - DL50 = 2300 + 102 mg/kg; • - DE50 narcotique, comprise entre 1 et 2 g/kg; • - DE50 anticonvulsivante vis-à-vis du ^pentétrazol; • - DE50 anticonvulsivante vis-à-vis des crises psychomotrices.

[2] = tested on: myoclonies palpébrales provoquées par l'infusion veineuse de pentétrazol; assay: Intravenous pentetrazol infusion producing palpebral myoclonus (threshold seizures); format: in vivo, lapin; details: for Dose moyenne de pentétrazol: controls 23,0; for Quantité de pentétrazol nécessaire à l'apparition des myoclonies palpébrales / Temps d'infusion veineuse nécessaire à l'apparition des myoclonies palpébrales: individual animals; for Temps d'infusion veineuse nécessaire à l'apparition des myoclonies palpébrales: comma separates minutes and seconds
Source text: as §1
Les résultats quant à la protection contre les crises pentétrazoliques liminaires génératrices de myaclonies palpébrales figurent dans les tableaux ci-après.
L'administration préalable de SCS 289 retarde l'apparition des myoclonies palpébrales provoquées par l'infusion veineuse de pentétrazol.
Une expérimentation similaire pratiquée en essais croisés a donné les résultats suivants pour divers anticonvulsivants de référence : […]

souris = assay: Acute toxicity by the digestive route, lethality after one week of observation; format: in vivo; details: souris, voie digestive, méthode de Miller et Tainter; 10080 min
Procedure: (§2) Des doses croissantes de produit (SCS 289) ont été administrées, par voie digestive, sous forme de suspensions gommeuses, sous le volume de 0,50 ml/20 g de poids corporel chez la souris et 0,50 ml/100 g de poids corporel chez le rat (de 500 à 4000 mg/kg avec des intervalles de 500 mg/kg).
(§3) Les animaux ont été maintenus en observation pendant une semaine, tout d'abord dans le laboratoire (avec un chauffage d'appoint) jusqu'au réveil des animaux endormis, puis dans l'unité animale conditionnée et climatisée.
(§4) Le taux de mortalité relevé dans chaque lot de rats et de souris au terme de la semaine d'observation a été le suivant :
(§5) Les valeurs des DL50, calculées par la méthode de Miller et Tainter sont respectivement de : • - 2300 ± 102 m^g/k^g chez la souris; • - 2050 + 220 mg/kg chez le rat.

[3] = as above; format: in vivo, souris; details: mouse, in vivo, po; for mortality at 168 h: read-out: Pourcentage de létalité Souris
Procedure: as §2, §3, §4, §5

curiosité de la souris = assay: Hole-board test (curiosity, exploratory behaviour); format: in vivo
Source text: (§6) On a donc étudié les effets dépresseurs que peuvent exercer des doses croissantes de SCS 289 sur : • - la motricité spontanée de la souris; • - sa curiosité, quantifiée par la méthode de la planche à trous; • - son agilité, évaluée par l'épreuve de la traction de Boissier et Simon; • - sa force musculaire, mesurée par l'épreuve des poids.
(§7) Les essais ont été pratiqués sur des groupes de 10 souris dont les performances motrices ont été mesurées à deux reprises : avant et une heure après traitement par le SCS 289 administré, par voie digestive à des doses allant de 10 à 200 mg/kg, actives vis-à-vis des convulsions pentétrazoliques et des crises psychomotrices. A noter que l'épreuve de la planche à trous utilisée pour chiffrer la curiosité des animaux (décompte du nombre de visites des trous) n'est pratiquée qu'une seule fois, le comportement explorateur des animaux traités étant alors comparé à celui des témoins.
(§8) Les résultats obtenus dans chaque groupe ont permis de calculer la DA50 capable de diminuer de 50 X les performances motrices initiales ou de diminuer de 50% la curiosité des souris traitées par rapport à celle des témoins.
(§9) Les expérimentations comportementales précédemment décrites ont été appliquées à des animaux recevant SCS 35 et SCS 289 aux doses de 10 et 25 mg/kg.

[4] = Hole-board test (curiosity, exploratory behaviour); format: in vivo, souris; details: mouse, in vivo, po
Source text: as §6, §7, §8, §9

[5] = lapins ayant reçu 50 mg/kg de SCS 289
[6] = lapins ayant reçu 100 mg/kg de SCS 289

CC(C)OC(=O)N(C(N)=O)c1ccccc1 [SCS 289, phényl-2 allophanate d'isopropyle]
Pourcentage de souris protégées une heure après traitement (crises psychomotrices; 5 mg/kg voie digestive): 45%
Pourcentage de souris protégées une heure après traitement (crises psychomotrices; 10 mg/kg voie digestive): 50%
Pourcentage de souris protégées une heure après traitement (crises psychomotrices; 25 mg/kg voie digestive): 95%
Pourcentage de souris protégées une heure après traitement (crises psychomotrices; 50 mg/kg voie digestive): 100%
Pourcentage de souris protégées une heure après traitement (crises psychomotrices; 2,5 mg/kg voie digestive): 35%
ED50 (crises psychomotrices; Mus musculus, po, souris, voie digestive, read-out: DE50 capable de protéger 50 % des animaux contre les crises psychomotrices): 4.5 mg/kg
activité par rapport au valproate de sodium (comparaison des DE50) (crises psychomotrices; crises psychomotrices, souris): 26 fois
activité par rapport à la phénacétamide (comparaison des DE50) (crises psychomotrices; crises psychomotrices, souris): trois fois plus actif
DL50/DE50 / Crises psycho-motrices (crises psychomotrices; index thérapeutique absolu, souris): 511
DE50 psychodépressive / DE50 anticonvulsivante / Crises psycho-motrices (crises psychomotrices; index thérapeutique relatif, psychodépressive = mean of DE50 for agilité, force musculaire, motricité, curiosité): 16
DE50 capable de protéger 50 % des animaux contre les crises psychomotrices (crises psychomotrices; souris, voie digestive): 4,5 mg/kg and ~5,5 mg/kg
% d'animaux protégés contre les seules crises toniques ([1]; 100 mg/kg, hyperextension tonique des pattes postérieures): 60%
% d'animaux protégés contre les seules crises toniques ([1]; 200 mg/kg): 50%
protection contre la forme tonique des convulsions (animals out of ten) ([1]; 200 mg/kg): cinq animaux sur dix
% d'animaux protégés complètement ([1]; 200 mg/kg, one hour before second electroshock, groups of ten rabbits): 20%
ED50 (Narcotic effect): 1000 to 2000 mg/kg
Elévation du seuil myoclonique ([2]; 50 mg/kg): 61,7%
Dose moyenne de pentétrazol ([2]; 50 mg/kg): 37,2 mg/kg
Elévation du seuil myoclonique ([2]; 100 mg/kg): 113%
Dose moyenne de pentétrazol ([2]; 100 mg/kg): 49,2 mg/kg
Quantité de pentétrazol nécessaire à l'apparition des myoclonies palpébrales [2, 5]: 40,78 mg/kg and 42,58 mg/kg and 51,43 mg/kg and 33,33 mg/kg and 43,68 mg/kg and 32,44 mg/kg and 22,22 mg/kg and 40 mg/kg and 45,15 mg/kg and 20 mg/kg
Temps d'infusion veineuse nécessaire à l'apparition des myoclonies palpébrales [2, 5]: 26 minutes et secondes and 28 minutes et secondes (2×) and 36 minutes et secondes and 21,15 minutes et secondes and 31,40 minutes et secondes and 22,20 minutes et secondes and 15 minutes et secondes and 28,40 minutes et secondes and 16 minutes et secondes
Quantité de pentétrazol nécessaire à l'apparition des myoclonies palpébrales [2, 6]: 51,85 mg/kg and 51,81 mg/kg and 46,28 mg/kg and 64 mg/kg and > 68,44 mg/kg and 45,15 mg/kg and 56,67 mg/kg and 33,84 mg/kg and 37,71 mg/kg and 36,41 mg/kg
Temps d'infusion veineuse nécessaire à l'apparition des myoclonies palpébrales [2, 6]: 35 minutes et secondes and 37 minutes et secondes and 28 minutes et secondes and 32 minutes et secondes and > 45 minutes et secondes and 28,40 minutes et secondes and 34 minutes et secondes and 33 minutes et secondes (2×) and 35,30 minutes et secondes
activité vis-à-vis des myoclonies palpébrales du lapin par rapport au valproate de sodium ([2]; relative activity, lapin): dix fois plus actif
activité vis-à-vis des myoclonies palpébrales du lapin par rapport à la phénacétamide ([2]; relative activity, lapin): deux fois plus actif
DL50 (souris): 2300 + 102 mg/kg
mortality at 168 h ([3]; 500 mg/kg voie digestive): 0%
mortality at 168 h ([3]; 1000 mg/kg voie digestive): 0%
mortality at 168 h ([3]; 1500 mg/kg voie digestive): 0%
mortality at 168 h ([3]; 2000 mg/kg voie digestive): 20%
mortality at 168 h ([3]; 2500 mg/kg voie digestive): 40%
mortality at 168 h ([3]; 3000 mg/kg voie digestive): 100%
mortality at 168 h ([3]; 3500 mg/kg voie digestive): 100%
mortality at 168 h ([3]; 4000 mg/kg voie digestive): 100%
LD50 at 168 h ([3]; souris, voie digestive, méthode de Miller et Tainter, read-out: DL50): 2300 ± 102 mg/kg
Nb de visites des trous Traités (curiosité de la souris; 10 mg/kg, par souris pendant cinq minutes, témoins 26,5): 27
Nb de visites des trous Traités (curiosité de la souris; 25 mg/kg, témoins 26,4): 27,4
Nb de visites des trous Traités (curiosité de la souris; 50 mg/kg, témoins 24,2): 23,6
Nb de visites des trous Traités (curiosité de la souris; 75 mg/kg, témoins 27): 21,4
Nb de visites des trous Traités (curiosité de la souris; 100 mg/kg, témoins 25,4): 8,6
Nb de visites des trous Traités (curiosité de la souris; 150 mg/kg, témoins 24,2): 0
Nb de visites des trous Traités (curiosité de la souris; 200 mg/kg, témoins 24,2): 0
DA50 capable de diminuer de 50 % la curiosité de la souris (curiosité de la souris; méthode de Miller et Tainter, 60 min): 82,5 ± 7,6 mg/kg and ~82 mg/kg
ED50 at 1 h ([4]; méthode de Miller et Tainter, read-out: DA50 capable de diminuer de 50 % la curiosité de la souris): 82.5 mg/kg
selectivity ratio ([4]; souris, read-out: DA50 curiosité par rapport aux doses anticonvulsivantes (pentétrazol / crises psychomotrices)): 15 to 18
